# Patent US7985837B2, “Two component Bacillus lantibiotic and methods for producing and using the same” (The Board of Trustees of the University of Illinois, priority 2006, dated 2011)
# Assays:
# [1] = test system: Lactococcus lactis CNRZ 117; test: Bioactivity assay, solid agar medium test (zones of inhibition); format: cell-based; details: for zone of inhibition, both modified peptides together: prepared in vitro: HalA1-Xa/HalA2-Xa modified by HalM1/HalM2, leader removed by Factor Xa, both peptides applied
# Method: Bioactivity Assay. The inhibitory activity of haloduracin isolated from the producing strain and prepared in vitro was assayed using the solid agar medium test. Liquid molten GM17 agar (4% M17, 0.5% glucose, 1.5% agar) was cooled to 50° C. and seeded with an overnight culture of the indicator strain Lactococcus lactis CNRZ 117. After agar solidification in a Petri dish, samples were applied to a small well created in the medium. Assay samples were typically concentrated to dryness using a speed vac and rehydrated in a small volume (5-15 μL) of sterile water for application purposes. The cell-free solution isolated from B. halodurans C-125 was applied directly to the plate without further concentration. Plates were incubated overnight at room temperature and zones of inhibition were observed the next day.
# [2] = Ltn1 and Ltn2 acting in synergy in a 1:1 ratio; cited from earlier work
substance,measurement,setting,value
"Hal1: mature haloduracin alpha peptide from HalA1, SEQ ID NO:5; three dehydrations and one disulfide",zones of growth inhibition / antimicrobial activity after iodoacetamide modification,"[1]; peptides isolated from B. halodurans, reduced and alkylated with iodoacetamide (Hal1 two adducts, Hal2 zero adducts), excess IAA removed",did not abolish antimicrobial activity
haloduracin: two-component lantibiotic of Bacillus halodurans C-125 composed of the modified peptides Hal1 (SEQ ID NO:5) and Hal2 (SEQ ID NO:6),zone of growth inhibition,"[1]; cell-free supernatant isolated from producer strain B. halodurans C-125, applied to indicator strain",a zone of growth inhibition was produced
same,"zone of inhibition, both modified peptides together",[1],comparable to the bactericidal effects exhibited by the peptides isolated from the producer strain
same,"zone of inhibition, both modified peptides together",[1]; listed as haloduracin peptides prepared in vitro,zone of inhibition comparable to that produced by Hal1 and Hal2 isolated from B. halodurans
lacticin 3147,antibacterial activity,[2],nanomolar antibacterial activity
